Assay results from ChEMBL document CHEMBL1201862, “PubChem BioAssay data set” (2004).
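How tested: cells in 96-well plates exposed to compound for 48 hours at five concentrations. GI50: concentration for 50% inhibition of growth.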 Calls of active or inactive are those of the source. No stated cut-off is given here; in the data, active = GI50 up to about 1.1 µM and inactive = higher.

Experiments:
Assay in all cases: growth of human tumour cells (NCI), 48 h
[1] = system: A549
[2] = system: DU-145
[3] = system: EKVX
[4] = system: Hs-578T
[5] = system: KM12
[6] = system: M14
[7] = system: MDA-MB-435
[8] = system: Malme-3M
[9] = system: NCI-H226
[10] = system: OVCAR-8
[11] = system: SK-MEL-2
[12] = system: SN12C
[13] = system: SNB-19
[14] = system: SW-620
[15] = system: T47D
[16] = system: SK-OV-3

Measured: GI50

CC(NNC(=O)c1cc[n+]([BH2-]C#N)cc1)c1cccc(F)c1 (centres undefined)
inactive: [1] > 100 µM | [2] > 100 µM | [3] > 100 µM | [4] > 100 µM | [5] > 100 µM | [6] > 100 µM | [7] > 100 µM | [8] > 100 µM | [9] > 100 µM | [10] > 100 µM | [11] > 100 µM | [12] > 100 µM | [13] > 100 µM | [14] > 100 µM | [15] > 100 µM

Cc1ccc(S(=O)(=O)NC(C(=O)O)C(C)C)cc1 (centres undefined)
inactive: [1] > 100 µM | [2] > 100 µM | [3] > 100 µM | [4] > 100 µM | [5] > 100 µM | [6] > 100 µM | [7] > 100 µM | [8] > 100 µM | [9] > 100 µM | [10] > 100 µM | [11] > 100 µM | [12] > 100 µM | [13] > 100 µM | [14] > 100 µM | [15] > 100 µM

CO[C@@H]1C[C@H]2[C@@H]3CC[C@H]([C@H](C)CO)[C@@]3(C)CC[C@@H]2[C@@]2(C)CC[C@H]3C[C@]312
inactive: [1] 69 µM | [2] > 100 µM | [3] 12.5 µM | [4] 43.4 µM | [5] 15.9 µM | [6] 32.4 µM | [7] 37.8 µM | [8] > 100 µM | [9] 28.1 µM | [10] 49 µM | [12] 53.7 µM | [13] 67.6 µM | [14] 70.3 µM | [15] 24.8 µM

NNC(=O)c1c(SCc2ccccc2)nc2c3ccccc3ccn12
inactive: [1] 23.4 µM | [2] 23.9 µM | [3] 19.5 µM | [4] 80.4 µM | [5] 22.6 µM | [6] 14.5 µM | [7] 17.1 µM | [9] 22.1 µM | [10] 30.5 µM | [11] 28.3 µM | [16] 27.1 µM | [12] 17 µM | [13] 36.6 µM | [14] 20.9 µM | [15] 18.1 µM

CCCC1CCC(=C2C(=O)CCC2=O)O1 (centres undefined)
inactive: [1] > 100 µM | [2] > 100 µM | [3] > 100 µM | [4] > 100 µM | [5] > 100 µM | [6] > 100 µM | [7] > 100 µM | [9] > 100 µM | [10] > 100 µM | [11] > 100 µM | [16] > 100 µM | [12] > 100 µM | [13] > 100 µM | [14] > 100 µM | [15] > 100 µM
